Results taken from US11814376B2, “Hepatitis b core protein modulators” (Assembly Biosciences, Inc., priority 2015, dated 2023).

What was measured:
[1] = system: HBV viral load in AD38 cells; assay: Viral load production in AD38 cells, quantitative PCR of the core sequence in supernatant; type: cell-based; settings: 10 μM compound, 6 days at 37° C., supernatant qPCR, relative to DMSO control; for activity at 10 µM: Hepatitis B virus, 144 h, read-out: AD38 Viral Load (%) (VL with cmpd/VL in DMSO control) at 10 μM
[2] = system: AD38 cells; assay: Viability of AD38 cells (Promega CellTiter-Glo); type: cell-based; settings: 10 μM compound, 6 days, CellTiter-Glo luminescence normalized to DMSO control (100%)
How it was run: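 After 6 days of compound exposure at 37° C (compound added as 10× solution in 10% DMSO; 50,000 cells/well, collagen-coated), medium was replaced with tetracycline-free DMEM/F12, 2% FBS, 1% DMSO. CellTiter-Glo luminescence was then recorded and normalized to DMSO-treated wells as 100% viability.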

Row | Structure (SMILES) | activity at 10 µM [1] | AD38 Viability Normalized Result (cmpd/DMSO %) at 10 μM [2] | AD38 Viral Load (%) (VL with cmpd/VL in DMSO control) at 10 μM [1]
1 | CCc1cc2c(cc1C(=O)NCc1cnc(-c3ccc(C#N)cc3F)s1)NC(=O)c1ccccc1S2(=O)=O [compound 11042] | 0.8% | 109% | 
2 | CN(C)CCCCc1cnn(-c2ncc(CNC(=O)c3ccc4c(c3)NC(=O)c3ccccc3S4(=O)=O)s2)c1 [compound 11099] | 3.9% | 90% | 
3 | CN(C)CCC#Cc1ccc(-c2ncc(CNC(=O)c3ccc4c(c3)NC(=O)c3ccccc3S4(=O)=O)s2)cc1 [compound 11003, N-((2-(4-(4-(dimethylamino)but-1-yn-1-yl)phenyl)thiazol-5-yl)methyl)-11-oxo-10, 11-dihydrodibenzo [b, f] [1, 4] thiazepine-8-carboxamide 5,5-dioxide] | 0.3% | 97% | 
4 | COC(=O)C1CCN(CCCOc2ccc(-c3ncc(CNC(=O)c4ccc5c(c4)NC(=O)c4ccccc4S5(=O)=O)s3)cc2)C1 (centres unmarked) [11107-A, methyl 1-(3-(4-(5-((5,5-dioxido-11-oxo-10, 11-dihydrodibenzo [b, f] [1, 4]thiazepine-8-carboxamido)methyl)thiazol-2-yl)phenoxy)propyl) pyrrolidine-3-carboxylate] |  | 100% | 7.7%
5 | CN(C)CCOc1ncc(CN(C)C(=O)c2ccc3c(c2)NC(=O)c2ccccc2S3(=O)=O)s1 [compound 1660, N-((2-(2-(dimethylamino)ethoxy)thiazol-5-yl)methyl)-N-methyl-11-oxo-10, 11-dihydrodibenzo [b, f] [1, 4] thiazepine-8-carboxamide 5,5-dioxide] | 86.8% | 102% | 
6 | O=C(NCc1cnc(-c2ccc(OCCCN3CCC(C(=O)O)C3)cc2)s1)c1ccc2c(c1)NC(=O)c1ccccc1S2(=O)=O (centres unmarked) [compound 11107, 1-(3-(4-(5-((5,5-dioxido-11-oxo-10, 11-dihydrodibenzo [b, f] [1, 4]thiazepine-8-carboxamido)methyl)thiazol-2-yl)phenoxy)propyl) pyrrolidine-3-carboxylic acid] | 6.4% | 96% | 
7 | CC(C)(C)OC(=O)N1CC(COc2ccc(-c3ncc(CNC(=O)c4ccc5c(c4)NC(=O)c4ccccc4S5(=O)=O)s3)cc2)C1 [1995-A, tert-butyl 3-((4-(5-((5,5-dioxido-11-oxo-10, 11-dihydrodibenzo [b, f] [1, 4]thiazepine-8-carboxamido)methyl)thiazol-2-yl)phenoxy)methyl) azetidine-1-carboxylate] |  | 107% | 2.4%
8 | CC(CCN(C)C)Oc1ccc(-c2ncc(CNC(=O)c3ccc4c(c3)NC(=O)c3ccccc3S4(=O)=O)s2)cc1 (centres unmarked) [compound 11080] | 1.4% | 84% | 
9 | O=C(O)c1ccc(-c2ncc(CNC(=O)c3ccc4c(c3)NC(=O)c3ccccc3O4)s2)cc1 [compound 1612, 4-(5-((11-oxo-10, 11-dihydrodibenzo [b, f] [1, 4]oxazepine-8-carboxamido)methyl)thiazol-2-yl) benzoic acid] | 6.9% | 105% | 
10 | O=C(NCc1cnc(-c2ccc(OCC3CCNCC3)cc2)s1)c1ccc2c(c1)NC(=O)c1ccccc1S2(=O)=O [compound 11137, 11-oxo-N-((2-(4-(piperidin-4-ylmethoxy)phenyl)thiazol-5-yl)methyl)-10, 11-dihydrodibenzo [b, f] [1, 4] thiazepine-8-carboxamide 5,5-dioxide] | 3.6% | 96% | 
11 | Cc1cc2c(cc1C(=O)NCc1cnc(C(F)(F)F)s1)NC(=O)c1ccccc1S2(=O)=O [compound 1910] | 19% | 94% | 
12 | CCCN1c2ccc(C(=O)NCc3cnc(C(F)(F)F)s3)cc2NC(=O)c2ccccc21 [compound 1916] | 15.5% | 103% | 
13 | O=C(NCc1cnc(-c2ccc(N3CCCC3=O)cc2)s1)c1ccc2c(c1)NC(=O)c1ccccc1O2 [compound 1864] | 3% | 93% | 
14 | CN(C)c1ncc(CNC(=O)c2ccc3c(c2)NC(=O)c2ccccc2S3)s1 [compound 1425] | 0.6% | 100% | 
15 | CC1c2ccc(C(=O)NCc3cnc(-c4ccc(O)cc4)s3)cc2NC(=O)c2ccccc21 (centres unmarked) [compound 1754] | 1.6% | 93% | 
16 | O=C(NCc1scnc1C(F)(F)F)c1ccc2c(c1)NC(=O)c1ccccc1S2 [compound 1431] | 5.5% | 103% | 
17 | O=C(NCc1cnc(-c2ccc(F)cc2)s1)c1ccc2c(c1)NC(=O)c1ccccc1S2 [compound 1556] | 1.6% | 105% | 

Row | Structure (SMILES) | activity at 10 µM [1] | AD38 Viability Normalized Result (cmpd/DMSO %) at 10 μM [2] | AD38 Viral Load (%) (VL with cmpd/VL in DMSO control) at 10 μM [1]
18 | O=C(NCc1cnc(-c2ccc(OCC3CNC3)cc2)s1)c1ccc2c(c1)NC(=O)c1ccccc1S2(=O)=O.O=C(O)C(F)(F)F [compound 1995, N-((2-(4-(azetidin-3-ylmethoxy)phenyl)thiazol-5-yl)methyl)-11-oxo-10, 11-dihydrodibenzo [b, f] [1, 4] thiazepine-8-carboxamide 5,5-dioxide TFA salt] | 16.3% | 103% | 
19 | CS(=O)(=O)Nc1ccc(-c2ncc(CNC(=O)c3ccc4c(c3)NC(=O)c3ccccc3S4(=O)=O)s2)cc1 [compound 1857] | 1.5% | 107% | 
20 | CC(C)(C)OC(=O)N1CCN(C(=O)c2ccc(-c3ncc(CNC(=O)c4ccc5c(c4)NC(=O)c4ccccc4S5(=O)=O)s3)cc2)CC1 [11016-A, tert-butyl 4-(4-(5-((5,5-dioxido-11-oxo-10, 11-dihydrodibenzo [b, f] [1, 4]thiazepine-8-carboxamido)methyl)thiazol-2-yl)benzoyl) piperazine-1-carboxylate] |  | 103% | 6.7%
21 | O=C(NCc1cnc(-c2ccc(-c3cc[nH]n3)cc2)s1)c1ccc2c(c1)NC(=O)c1ccccc1S2(=O)=O [compound 1953] | 0.4% | 118% | 
22 | O=C(O)CNc1ncc(CNC(=O)c2ccc3c(c2)NC(=O)c2ccccc2S3)s1 [compound 1602, (5-((11-oxo-10, 11-dihydrodibenzo [b, f] [1, 4]thiazepine-8-carboxamido)methyl)thiazol-2-yl) glycine] | 59.8% | 97% | 
23 | Cc1c(C(=O)NCc2cnc(-c3cc[nH]n3)s2)ccc2c1NC(=O)c1ccccc1S2(=O)=O [compound 11152] | 1.6% | 96% | 
24 | O=C(NCc1cnc(-c2ccc(O)cc2Cl)s1)c1ccc2c(c1)NC(=O)c1ccccc1O2 [compound 1703] | 3.1% | 93% | 
25 | N#Cc1ccc(-c2ncc(CNC(=O)c3ccc4c(c3)NC(=O)c3ccccc3S4(=O)=O)s2)nc1 [compound 1881] | 0.8% | 108% | 
26 | O=C(NCc1cnc(-c2cc[nH]n2)s1)c1ccc2c(c1)NC(=O)c1ccccc1S2(=O)=O [compound 1959] | 5% | 92% | 
27 | O=C(O)CNc1ncc(CNC(=O)c2ccc3c(c2)NC(=O)c2ccccc2S3(=O)=O)s1 [compound 1583, (5-((5,5-dioxido-11-oxo-10, 11-dihydrodibenzo [b, f] [1, 4]thiazepine-8-carboxamido)methyl)thiazol-2-yl) glycine] | 1% | 0% | 
28 | O=C(NCc1cnc(-c2ccc(OCCCN3CCOCC3)cc2)s1)c1ccc2c(c1)NC(=O)c1ccccc1O2 [compound 11161, N-((2-(4-(3-morpholinopropoxy)phenyl)thiazol-5-yl)methyl)-11-oxo-10, 11-dihydrodibenzo [b, f] [1, 4] oxazepine-8-carboxamide] | 1.7% | 104% | 
29 | O=C1CCN(c2ncc(CNC(=O)c3ccc4c(c3)NC(=O)c3ccccc3S4(=O)=O)s2)CCN1 [compound 1973] | 33.7% | 100% | 
30 | CN(C)c1ncc(-c2ncc(CNC(=O)c3ccc4c(c3)NC(=O)c3ccccc3S4(=O)=O)s2)cn1 [compound 1675] | 2.3% | 115% | 
31 | N#Cc1ccc(-c2ncc(CNC(=O)c3cc4c(cc3Cl)Oc3ccccc3C(=O)N4)s2)cc1 [compound 1913] | 68.1% | 111% | 
32 | CC(=O)NCCCSc1ccc(-c2ncc(CNC(=O)c3ccc4c(c3)NC(=O)c3ccccc3S4(=O)=O)s2)cc1 [compound 11067, N-((2-(4-((3-acetamidopropyl)thio)phenyl)thiazol-5-yl)methyl)-11-oxo-10, 11-dihydrodibenzo [b, f] [1, 4] thiazepine-8-carboxamide 5,5-dioxide] | 2.5% | 99% | 
33 | C=CCN1c2ccc(C(=O)NCc3cnc(-c4ccc(C#N)cc4)s3)cc2NC(=O)c2ccccc21 [compound 1921] | 1.2% | 101% | 
34 | O=C1Nc2c(ccc(C(=O)NCc3cnc(C(F)(F)F)s3)c2Cl)S(=O)(=O)c2ccccc21 [compound 11082] | 1.2% | 95% | 
